The values below come from US8084492B2, “Benzofuran compound and pharmaceutical composition containing the same” (The New Industry Research Organization, priority 2004, dated 2011).

SMILES strings stand for the structures.

Tested on in the first data set: not given
Assay: not given
Conditions: not given
Take `COc1ccc(CCNC(=O)C=C(C)c2c(C)oc3ccc([N+](=O)[O-])cc23)cc1OC` [Example 21]: the melting point (in general, the temperature, or range, at which the solid turns liquid) lay within 116.9 to 124.4 °C.

`O=C(/C=C(/c1ccc(Cl)cc1)c1cc2cc(Br)ccc2o1)N1CCOCC1` [Example 10] came in with a melting point of 150 to 153.5 °C. `CCN(CC)C(=O)/C=C(/c1ccc(Cl)cc1)c1cc2cc(Br)ccc2o1` [Example 6]: the melting point fell in the range of 106.7 to 109.8 °C.

As to `COc1cccc(NC(=O)/C=C(/c2ccc(Cl)cc2)c2cc3cc(Br)ccc3o2)c1` [Example 16], the melting point lay within 160.1 to 162.2 °C.

On to `COc1cccc(NC(=O)/C=C(\C)c2c(C)oc3ccc(Cl)cc23)c1` [Example 4], for which the melting point was in the range of 139 to 142 °C. On to `COc1ccc(CCNC(=O)/C=C/c2coc3ccccc23)cc1OC` [Example 9], for which the melting point lay in the range of 138.1 to 140.3 °C. In turn, `COc1ccc(CCNC(=O)/C=C(\C)c2c(C)oc3ccc(Br)cc23)cc1OC` [Example 5] registered a melting point of 143.1 to 150 °C. Regarding `COc1ccc(CCNC(=O)/C=C(\C)c2c(-c3ccccc3)oc3ccc(Cl)cc23)cc1OC` [Example 11], the melting point was 169.1 to 171.9 °C. For `COc1ccc(CCNC(=O)/C=C(/C)c2c(C)oc3ccc(Br)cc23)cc1OC` [Example 15], the melting point fell in the range of 150.1 to 153.5 °C. Same read-out and setting: the figure for `O=C(/C=C/c1coc2ccccc12)N1CCOCC1` [Example 14] is 132.1 to 134.6 °C; for `COc1ccc(CCNC(=O)/C=C(/C)c2c(C)oc3ccc(Cl)cc23)cc1OC` [Example 2] it is 150.9 to 151.5 °C; for `CCN(CC)C(=O)/C=C(\C)c1c(C)oc2ccc([N+](=O)[O-])cc12` [Example 20] it is 130 to 134 °C. Same read-out and setting: the figure for `COc1ccc(CCNC(=O)/C=C(\C)c2c(C)oc3ccc(Cl)cc23)cc1OC` [Example 3] is 73 to 76 °C; for `COc1ccc(C(=CC(=O)NCCc2ccc(OC)c(OC)c2)c2cc3cc(Br)ccc3o2)cc1` [Example 17] it is 112.2 to 117 °C. `CCN(CC)C(=O)/C=C(/c1ccc(OC)cc1)c1cc2cc(Br)ccc2o1` [Example 13] came in with a melting point of 93.5 to 96 °C.

For a further data set, the target named is T1, human BLT2 (Homo sapiens, UniProt Q9NPC1).
T1 construct: expressed in transfected cells; host or cells: CHO cells
T1 sequence (Q9NPC1 1-358): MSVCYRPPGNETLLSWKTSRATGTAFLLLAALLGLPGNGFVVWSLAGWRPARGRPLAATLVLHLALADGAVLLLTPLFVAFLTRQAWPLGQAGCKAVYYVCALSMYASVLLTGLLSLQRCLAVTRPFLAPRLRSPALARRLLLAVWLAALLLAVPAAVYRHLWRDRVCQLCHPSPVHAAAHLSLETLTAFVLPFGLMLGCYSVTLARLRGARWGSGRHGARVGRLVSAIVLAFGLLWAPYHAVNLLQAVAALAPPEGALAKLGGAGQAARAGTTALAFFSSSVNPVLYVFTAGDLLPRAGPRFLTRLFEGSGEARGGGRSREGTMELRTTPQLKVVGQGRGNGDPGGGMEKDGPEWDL
Kind of data set: LTB4-induced intracellular calcium increase (Fluo-3) in CHO cells expressing human BLT2. The data set is classed as cell-based. Particulars: CHO cells harbouring BLT2; compound 10 μM; 100 nM LTB4; fluorescence AUC in 10 min. On the procedure:
(§1) CHO cells harbouring a gene encoding human BLT1 or human BLT2 and functionally expressing the receptor were seeded in a 96 well plate at 4×10^4 cells/well, and cultured at 37° C. for 60 min. The culture supernatant was removed and a loading buffer (100 μl) containing 4 μM Fluo-3 (manufactured by Dojindo), 0.04% pluoronic acid (manufactured by Sigma) and 1% serum was added. The cells were cultured at 37° C. for 30 min to introduce Fluo-3 into the cells. After culture, the cells were washed with a buffer, and a buffer containing the compound of Example 1 (10 μM (final concentration)) was added, and then 100 nM (final concentration) of leukotriene B4 (LTB4) was added. Changes in the intracellular calcium ion concentration were measured with Flexstation (manufactured by Molecular Devices Corporation) as an increase in the fluorescence intensity (area under a curve in a time-course graph of fluorescence intensity in 10 min measurement). As a positive control of BLT1 and BLT2 antagonists, ZK158252, a known LTB4 inhibitor, was used.
On the technique in general: A change in cytosolic calcium serves as a functional read-out for many receptors and channels.
Regarding `CCN(CC)C(=O)/C=C(\C)c1cc2cccc(OC(C)c3ccccc3)c2o1` (stereo not shown) [Example 1, (E)-3-[7-(1-phenylethoxy)-benzofuran-2-yl]-but-2-enoic acid-diethylamide], the “suppression of increase in the intracellular calcium ion concentration due to LTB4 stimulation” value is “suppressed by the compound of Example 1 at an intensity equivalent to or greater than the suppression by ZK158252”.

For the molecule `O=C(O)CCC/C=C1\CCCCC1/C=C/C=C/C(O)C1(CC#Cc2ccccc2)CCC1` (stereo not shown) [ZK158252, reference compound], the “suppression of increase in the intracellular calcium ion concentration due to LTB4 stimulation” value is reported as “significantly suppressed”.

A further data set deals with T2, human BLT1 (Homo sapiens, UniProt Q15722).
T2 construct: expressed in transfected cells; host or cells: CHO cells
T2 sequence (Q15722 whole entry): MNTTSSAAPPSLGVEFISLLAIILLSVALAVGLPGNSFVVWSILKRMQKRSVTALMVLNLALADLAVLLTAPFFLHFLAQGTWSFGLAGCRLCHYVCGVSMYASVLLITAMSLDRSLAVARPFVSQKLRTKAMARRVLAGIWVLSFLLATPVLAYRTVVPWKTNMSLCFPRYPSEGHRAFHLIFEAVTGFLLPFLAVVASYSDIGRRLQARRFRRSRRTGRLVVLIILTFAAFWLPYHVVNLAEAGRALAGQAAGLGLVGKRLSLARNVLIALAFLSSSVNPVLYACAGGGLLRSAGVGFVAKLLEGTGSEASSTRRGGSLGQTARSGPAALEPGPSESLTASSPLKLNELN
Kind of data set: LTB4-induced intracellular calcium increase (Fluo-3) in CHO cells expressing human BLT1. The format is cell-based. Particulars: CHO cells harbouring BLT1; compound 10 μM; 100 nM LTB4; fluorescence AUC in 10 min. Here is the method: as §1
Turning to `CCN(CC)C(=O)/C=C(\C)c1cc2cccc(OC(C)c3ccccc3)c2o1` (stereo not shown) [Example 1, (E)-3-[7-(1-phenylethoxy)-benzofuran-2-yl]-but-2-enoic acid-diethylamide], the “suppression of increase in the intracellular calcium ion concentration due to LTB4 stimulation” value was “weaker as compared to the effect on BLT2”. For the molecule `O=C(O)CCC/C=C1\CCCCC1/C=C/C=C/C(O)C1(CC#Cc2ccccc2)CCC1` (stereo not shown) [ZK158252, reference compound], the “suppression of increase in the intracellular calcium ion concentration due to LTB4 stimulation” value was “significantly suppressed”.
